Test results from PubChem BioAssay AID248 (DTP/NCI, 2004).
Toxic doses and inconclusive results are not listed. No stated cut-off is given here; in the data, active means T/C of 150% or more; inactive means T/C below 125%.

System: L1210 leukemia ip in BDF1 mice, survival T/C
Experiment: NCI In Vivo Anticancer Drug Screen. Data for tumor model L1210 Leukemia (intraperitoneal) in B6D2F1 (BDF1) mice
Settings: endpoint: mean survival time, higher = longer survival
Summary of the method: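 Ratio derived from survival: compound-dosed mice over vehicle-dosed mice, all bearing a transplantable tumor.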

[1] = dose: 100.0 mg/kg/injection, schedule: Q01DX001 (ip), vehicle: Klucel (hydroxypropylcellulose) (HPC)
[2] = dose: 200.0 mg/kg/injection, schedule: Q01DX001 (ip), vehicle: Klucel (hydroxypropylcellulose) (HPC)
[3] = dose: 400.0 mg/kg/injection, schedule: Q01DX001 (ip), vehicle: Klucel (hydroxypropylcellulose) (HPC)
[4] = dose: 100.0 mg/kg/injection, schedule: Q01DX009 (ip), vehicle: saline
[5] = dose: 100.0 mg/kg/injection, schedule: Q01DX001 (ip), vehicle: saline
[6] = dose: 200.0 mg/kg/injection, schedule: Q01DX001 (ip), vehicle: saline
[7] = dose: 400.0 mg/kg/injection, schedule: Q01DX001 (ip), vehicle: saline
[8] = dose: 100.0 mg/kg/injection, schedule: Q01DX009 (ip), vehicle: saline with Tween-80
[9] = dose: 200.0 mg/kg/injection, schedule: Q01DX009 (ip), vehicle: saline with Tween-80
[10] = dose: 400.0 mg/kg/injection, schedule: Q01DX009 (ip), vehicle: saline with Tween-80
[11] = dose: 100.0 mg/kg/injection, schedule: Q04DX003 (ip), vehicle: saline
[12] = dose: 200.0 mg/kg/injection, schedule: Q04DX003 (ip), vehicle: saline
[13] = dose: 400.0 mg/kg/injection, schedule: Q04DX003 (ip), vehicle: saline
[14] = dose: 100.0 mg/kg/injection, schedule: Q04DX003 (ip), vehicle: saline with Tween-80
[15] = dose: 200.0 mg/kg/injection, schedule: Q04DX003 (ip), vehicle: saline with Tween-80
[16] = dose: 400.0 mg/kg/injection, schedule: Q04DX003 (ip), vehicle: saline with Tween-80
[17] = dose: 200.0 mg/kg/injection, schedule: Q01DX009 (ip), vehicle: saline
[18] = dose: 400.0 mg/kg/injection, schedule: Q01DX009 (ip), vehicle: saline
[19] = dose: 100.0 mg/kg/injection, schedule: Q04DX003 (ip), vehicle: Klucel (hydroxypropylcellulose) (HPC)
[20] = dose: 200.0 mg/kg/injection, schedule: Q04DX003 (ip), vehicle: Klucel (hydroxypropylcellulose) (HPC)
[21] = dose: 400.0 mg/kg/injection, schedule: Q04DX003 (ip), vehicle: Klucel (hydroxypropylcellulose) (HPC)

Measured: T/C

CCN(c1ccccc1P(c1ccccc1)c1ccccc1)c1ccccc1P(c1ccccc1)c1ccccc1
inactive: dose: 25.6 mg/kg/injection, schedule: Q04DX002 (ip), vehicle: saline with Tween-80 89 % of control | dose: 64.0 mg/kg/injection, schedule: Q04DX002 (ip), vehicle: saline with Tween-80 89 % of control | dose: 160.0 mg/kg/injection, schedule: Q04DX002 (ip), vehicle: saline with Tween-80 89 % of control | dose: 400.0 mg/kg/injection, schedule: Q04DX002 (ip), vehicle: saline with Tween-80 89 % of control

COC(=O)c1ccccc1Cc1cccc2c(Cl)cccc12
inactive: [1] 97 % of control | [2] 98 % of control | [3] 106 % of control

C1CCC2C[N-]CCC2C1.C1CCC2C[N-]CCC2C1.C1CCC2C[N-]CCC2C1.C1CCC2C[N-]CCC2C1.[I][Fe][I] (configuration not stated)
inactive: dose: 50.0 mg/kg/injection, schedule: Q01DX009 (ip), vehicle: saline 89 % of control | [4] 94 % of control

Nc1ccccc1Nc1ccc(-c2ccc(Nc3ccccc3N)cc2)cc1
inactive: [5] 94 % of control | [6] 100 % of control | [7] 92 % of control

COC(=O)C1(C)CCCC2(C)C1CCC13C=C(C(C)C)C(CC1C(=O)O)CC23 (configuration not stated)
inactive: [8] 95 % of control | [9] 93 % of control | [10] 87 % of control

COc1ccc(CCN=C(C)C2C3CC4CC(C3)CC2C4)cc1OC (configuration not stated)
inactive: [11] 90 % of control | [12] 97 % of control | [13] 90 % of control

C=CCSCn1ncc2ccc([N+](=O)[O-])cc21
inactive: [5] 94 % of control | [6] 92 % of control | [7] 96 % of control

O=C1OC(=O)C2C3C=CC(CC12)O3 (configuration not stated)
inactive: dose: 6.25 mg/kg/injection, schedule: Q01DX009 (ip), vehicle: saline with Tween-80 97 % of control | dose: 6.25 mg/kg/injection, schedule: Q04DX003 (ip), vehicle: saline with Tween-80 96 % of control | dose: 12.5 mg/kg/injection, schedule: Q01DX009 (ip), vehicle: saline with Tween-80 97 % of control | dose: 12.5 mg/kg/injection, schedule: Q04DX003 (ip), vehicle: saline with Tween-80 91 % of control | dose: 25.0 mg/kg/injection, schedule: Q04DX003 (ip), vehicle: saline with Tween-80 94 % of control

CCOC(=O)c1ccc(OC(=O)Nc2ccccc2)cc1
inactive: [8] 98 % of control | [14] 98 % of control | [9] 96 % of control | [15] 95 % of control | [10] 90 % of control | [16] 91 % of control

CCCC(CC)C(=O)OCCCSCCCOC(=O)C(CC)CCC (configuration not stated)
inactive: dose: 222.0 mg/kg/injection, schedule: Q01DX Z (ip), vehicle: methylcellulose (MC) 92 % of control | dose: 333.0 mg/kg/injection, schedule: Q01DX Z (ip), vehicle: methylcellulose (MC) 94 % of control | dose: 500.0 mg/kg/injection, schedule: Q01DX Z (ip), vehicle: methylcellulose (MC) 87 % of control

COC(=O)C(=O)c1ccccc1
inactive: [8] 101 % of control | [9] 100 % of control | [10] 89 % of control

O=S(=O)(Nc1cc(Cl)ccc1Cl)c1ccc(Cl)cc1
inactive: [8] 92 % of control | [9] 102 % of control | [10] 92 % of control

Cc1cccc(=O)n1CCC#N
inactive: [4] 96 % of control | [11] 101 % of control | [17] 106 % of control | [12] 93 % of control | [18] 112 % of control | [13] 106 % of control

O=C1C=C(Nc2ccccc2)C(=O)C=C1Nc1ccccc1
inactive: [14] 86 % of control | [15] 86 % of control | [16] 86 % of control

Cc1ccc(S(=O)(=O)Nc2ccccc2SSc2ccccc2NS(=O)(=O)c2ccc(C)cc2)cc1
inactive: [8] 97 % of control | [14] 101 % of control | [9] 97 % of control | [15] 97 % of control | [10] 90 % of control | [16] 95 % of control

O=C(OC(=O)c1ccncc1)c1ccncc1
inactive: dose: 75.0 mg/kg/injection, schedule: Q04DX003 (ip), vehicle: saline 94 % of control | dose: 150.0 mg/kg/injection, schedule: Q04DX003 (ip), vehicle: saline 92 % of control | dose: 300.0 mg/kg/injection, schedule: Q04DX003 (ip), vehicle: saline 110 % of control

C(=C1\CC(c2ccccc2)(c2ccccc2)N=N1)/c1ccccc1
inactive: [19] 91 % of control | [20] 114 % of control | [21] 101 % of control

Cn1c(=O)c2[nH]c(-c3ccc([N+](=O)[O-])cc3)nc2n(C)c1=O
inactive: dose: 50.0 mg/kg/injection, schedule: Q01DX001 (ip), vehicle: saline 98 % of control | [5] 93 % of control | [6] 96 % of control | [7] 93 % of control

CC1=CC(=O)CC(=O)O1
inactive: [1] 103 % of control | dose: 100.0 mg/kg/injection, schedule: Q01DX009 (ip), vehicle: Klucel (hydroxypropylcellulose) (HPC) 96 % of control | [19] 97 % of control | [2] 108 % of control | dose: 200.0 mg/kg/injection, schedule: Q01DX009 (ip), vehicle: Klucel (hydroxypropylcellulose) (HPC) 94 % of control | [20] 101 % of control | [3] 103 % of control | [21] 95 % of control

COc1cccc(C2NC(=S)N3C(c4cccc(OC)c4)NC(=S)N23)c1 (configuration not stated)
inactive: dose: 100.0 mg/kg/injection, schedule: Q01DX009 (ip), vehicle: gum acacia 108 % of control | dose: 100.0 mg/kg/injection, schedule: Q04DX003 (ip), vehicle: gum acacia 88 % of control | dose: 200.0 mg/kg/injection, schedule: Q01DX009 (ip), vehicle: gum acacia 99 % of control | dose: 200.0 mg/kg/injection, schedule: Q04DX003 (ip), vehicle: gum acacia 100 % of control | dose: 400.0 mg/kg/injection, schedule: Q01DX009 (ip), vehicle: gum acacia 93 % of control | dose: 400.0 mg/kg/injection, schedule: Q04DX003 (ip), vehicle: gum acacia 95 % of control

Oc1ccccc1C=Nc1cc(Cl)ccc1O
inactive: [5] 97 % of control | [6] 95 % of control | [7] 103 % of control

O=C(O)c1ccc2c(=O)[nH][nH]c(=O)c2c1
inactive: dose: 87.5 mg/kg/injection, schedule: Q01DX009 (ip), vehicle: Klucel (hydroxypropylcellulose) (HPC) 101 % of control | dose: 175.0 mg/kg/injection, schedule: Q01DX009 (ip), vehicle: Klucel (hydroxypropylcellulose) (HPC) 96 % of control | dose: 350.0 mg/kg/injection, schedule: Q01DX009 (ip), vehicle: Klucel (hydroxypropylcellulose) (HPC) 102 % of control

O=[N+]([O-])c1cccc(C(O)CC(O)(C(F)(F)F)C(F)(F)F)c1 (configuration not stated)
inactive: [8] 98 % of control | [14] 95 % of control | [9] 101 % of control | [15] 97 % of control | [10] 95 % of control | [16] 103 % of control

Cc1ccc([N+](=O)[O-])cc1NC(=O)Oc1cc(=O)oc2ccccc12
inactive: dose: 100.0 mg/kg/injection, schedule: Q04DX002 (ip), vehicle: Klucel (hydroxypropylcellulose) (HPC) 104 % of control | dose: 200.0 mg/kg/injection, schedule: Q04DX002 (ip), vehicle: Klucel (hydroxypropylcellulose) (HPC) 90 % of control | dose: 400.0 mg/kg/injection, schedule: Q04DX002 (ip), vehicle: Klucel (hydroxypropylcellulose) (HPC) 93 % of control

CCOC(=O)CCN1CC(C)OC(C)C1 (configuration not stated)
inactive: [4] 97 % of control | [11] 93 % of control | [17] 97 % of control | [12] 102 % of control | [18] 103 % of control | [13] 111 % of control

CC(=O)Oc1cn(C)c2c1C(=O)CC(C)(C)C2
inactive: dose: 75.0 mg/kg/injection, schedule: Q04DX002 (ip), vehicle: Klucel (hydroxypropylcellulose) (HPC) 94 % of control | dose: 150.0 mg/kg/injection, schedule: Q04DX002 (ip), vehicle: Klucel (hydroxypropylcellulose) (HPC) 105 % of control | dose: 300.0 mg/kg/injection, schedule: Q04DX002 (ip), vehicle: Klucel (hydroxypropylcellulose) (HPC) 97 % of control

Cc1ccc(S(=O)(=O)Nc2c(C)c(Cl)c(C)c3ccccc23)cc1
inactive: [14] 94 % of control | [15] 87 % of control | [16] 89 % of control
